In patent US10703764B2, “Benzopiperazine compositions as BET bromodomain inhibitors” (FORMA Therapeutics, Inc., priority 2013, dated 2020):
Where two headings read alike, the source gives them in different places.

Assays:
BRD4 BD1 = target: T1, BRD4 BD1 (Homo sapiens, UniProt O60885); test: AlphaScreen binding assay, BRD4 Bromodomain 1
T1 construct: made in house
Procedure, shortened: (§1)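 An AlphaScreen competition format was used with His-BRD4 BD1 or BD2 and biotin-H4 K5/8/12/16-acetyl peptide, each at matched final levels of 50 nM (BD1) or 100 nM (BD2). Incubation in HEPES/NaCl buffer with 0.1% BSA and 0.01% Triton X-100 ran ≥1 h before IC50 determination.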

BRD4 BD2 = target: T2, BRD4 BD2 (Homo sapiens, UniProt O60885); test: AlphaScreen binding assay, BRD4 Bromodomain 2
T2 construct: made in house
Procedure, shortened: as §1

MV4-11 cells = test: Oncology cell growth assay (3-day proliferation, CellTiter-Glo); type: cell-based; conditions: Homo sapiens, AML cell line MV4-11, 72 hours, compounds grouped by IC50 range, read-out: MV4-11 IC50 (inhibition of proliferation, gIC50)
Procedure, shortened: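 Luminescence from CellTiter-Glo served as the growth read-out after MV4-11 cells (3000/well) were cultured with compound for 72 hours. Final concentrations spanned 10 to 0.0045 μM in 3-fold steps. gIC50 values were derived by four-parameter logistic fitting relative to DMSO and cell-free controls.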

| IC50 (BRD4 BD1) [nM] | IC50 (BRD4 BD2) [nM] | IC50 (MV4-11 cells; MV4-11, 72 h) [nM] | Structure (SMILES) | IC50 (MV4-11 cells) [nM] |
| --- | --- | --- | --- | --- |
| 1000 to 10000 | 50 to 500 | > 500 | CC(=O)N1c2ccc(-c3cnn(CCN(C)C)c3)cc2N(C(=O)C2CC2)C[C@@H]1C [Example I-146, (S)-1-(4-(cyclopropanecarbonyl)-6-(1-(2-(dimethylamino)ethyl)-1H-pyrazol-4-yl)-2-methyl-3,4-dihydroquinoxalin-1 (2H)-yl)ethanone] | – |
| 100 to 1000 | 50 to 500 | 100 to 500 | CC(=O)N1c2ccc(-c3cnn(Cc4nonc4C)c3)cc2N(C(=O)C2CC2)C[C@@H]1C [Example I-147, (S)-1-(4-(cyclopropanecarbonyl)-2-methyl-6-(1-((4-methyl-1,2,5-oxadiazol-3-yl)methyl)-1H-pyrazol-4-yl)-3,4-dihydroquinoxalin-1 (2H)-yl)ethanone] | – |
| 100 to 1000 | 50 to 500 | 100 to 500 | CC(=O)N1c2ccc(-c3cnn(CC4CC4(F)F)c3)cc2N(C(=O)C2CC2)C[C@@H]1C (stereo partly drawn) [Example I-148, 1-((S)-4-(cyclopropanecarbonyl)-6-(1-((2,2-difluorocyclopropyl)methyl)-1H-pyrazol-4-yl)-2-methyl-3,4-dihydroquinoxalin-1(2H)-yl)ethanone] | – |
| 100 to 1000 | 50 to 500 | 100 to 500 | CC(=O)N1c2ccc(-c3cnn(Cc4cc(C)no4)c3)cc2N(C(=O)C2CC2)C[C@@H]1C [Example I-149, (S)-1-(4-(cyclopropanecarbonyl)-2-methyl-6-(1-((3-methylisoxazol-5-yl)methyl)-1H-pyrazol-4-yl)-3,4-dihydroquinoxalin-1 (2H)-yl)ethanone] | – |
| 100 to 1000 | < 50 | > 500 | CC(=O)N1c2ccc(-c3cnn(CCC(F)(F)F)c3)cc2N(C(=O)C2CC2)C[C@@H]1C [Example I-150, (S)-1-(4-(cyclopropanecarbonyl)-2-methyl-6-(1-(3,3,3-trifluoropropyl)-1H-pyrazol-4-yl)-3,4-dihydroquinoxalin-1(2H)-yl)ethanone] | – |
| 100 to 1000 | < 50 | 100 to 500 | CC(=O)N1c2ccc(-c3cnn(C4CNC4)c3)cc2N(C(=O)OC2CC(F)(F)C2)C[C@@H]1C [Example I-152, (S)-3,3-difluorocyclobutyl 4-acetyl-7-(1-(azetidin-3-yl)-1H-pyrazol-4-yl)-3-methyl-3,4-dihydroquinoxaline-1(2H)-carboxylate] | – |
| 100 to 1000 | 50 to 500 | 100 to 500 | CC(=O)N1c2ccc(-c3cnn(C4CCNCC4)c3)cc2N(C(=O)OC2CCC(F)(F)CC2)C[C@@H]1C [Example I-153, (S)-4,4-difluorocyclohexyl 4-acetyl-3-methyl-7-(1-(piperidin-4-yl)-1H-pyrazol-4-yl)-3,4-dihydroquinoxaline-1(2H)-carboxylate] | – |
| 100 to 1000 | < 50 | 100 to 500 | CC(=O)N1c2ccc(-c3cnn(C4CCCS(=O)(=O)C4)c3)cc2N(C(=O)OC2CCC2)C[C@@H]1C (stereo partly drawn) [Example I-158, cyclobutyl (3S)-4-acetyl-7-[1-(1,1-dioxo-16-thian-3-yl)-1H-pyrazol-4-yl]-3-methyl-1,2,3,4-tetrahydroquinoxaline-1-carboxylate] | – |
| 100 to 1000 | 50 to 500 | 100 to 500 | CC(=O)N1c2ccc(-c3cnn(C4CCCS(=O)(=O)C4)c3)cc2N(C(=O)OC2CCOCC2)C[C@@H]1C (stereo partly drawn) [Example I-161, oxan-4-yl (3S)-4-acetyl-7-[1-(1,1-dioxo-1λ^6-thian-3-yl)-1H-pyrazol-4-yl]-3-methyl-1,2,3,4-tetrahydroquinoxaline-1-carboxylate] | – |
| 100 to 1000 | 50 to 500 | 100 to 500 | CC(=O)N1c2ccc(-c3cnn(C4CCCS(=O)(=O)C4)c3)cc2N(C(=O)OC2CC(F)(F)C2)C[C@@H]1C (stereo partly drawn) [Example I-162, 3,3-difluorocyclobutyl (3S)-4-acetyl-7-[1-(1,1-dioxo-1λ^6-thian-3-yl)-1H-pyrazol-4-yl]-3-methyl-1,2,3,4-tetrahydroquinoxaline-1-carboxylate] | – |
| 100 to 1000 | < 50 | 100 to 500 | CC(=O)N1c2ccc(-c3cnn(C4CC4)c3)cc2N(c2nn(C)c3c(F)cccc23)C[C@@H]1C [Example I-179, 1-[(2S)-6-(1-cyclopropyl-1H-pyrazol-4-yl)-4-(7-fluoro-1-methyl-1H-indazol-3-yl)-2-methyl-1,2,3,4-tetrahydroquinoxalin-1-yl]ethan-1-one] | – |
| 1000 to 10000 | < 50 | 100 to 500 | CC(=O)N1c2ccc(-c3cnn(CCO)c3)cc2N(c2nn(C)c3c(F)cccc23)C[C@@H]1C [Example I-180, 1-[(2S)-4-(7-fluoro-1-methyl-1H-indazol-3-yl)-6-[1-(2-hydroxyethyl)-1H-pyrazol-4-yl]-2-methyl-1,2,3,4-tetrahydroquinoxalin-1-yl]ethan-1-one] | – |
| 100 to 1000 | < 50 | < 100 | CC(=O)N1c2ccc(-c3cnn(C4CCNCC4)c3)cc2N(c2nn(C)c3ccccc23)C[C@@H]1C [Example I-181, 1-[(2S)-2-methyl-4-(1-methyl-1H-indazol-3-yl)-6-[1-(piperidin-4-yl)-1H-pyrazol-4-yl]-1,2,3,4-tetrahydroquinoxalin-1-yl]ethan-1-one] | – |
| 100 to 1000 | < 50 | 100 to 500 | CC(=O)N1c2ccc(-c3cnn(C4CCNCC4)c3)cc2N(c2nn(C)c3cnccc23)C[C@@H]1C [Example I-182, (S)-1-(2-methyl-4-(1-methyl-1H-pyrazolo[3,4-c]pyridin-3-yl)-6-(1-(piperidin-4-yl)-1H-pyrazol-4-yl)-3,4-dihydroquinoxalin-1(2H)-yl)ethanone] | – |
| 100 to 1000 | < 50 | 100 to 500 | CC(=O)N1c2ccc(-c3cnn(C4CC4)c3)cc2N(c2nn(C)c3cccc(F)c23)C[C@@H]1C [Example I-183, 1-[(2S)-6-(1-cyclopropyl-1H-pyrazol-4-yl)-4-(4-fluoro-1-methyl-1H-indazol-3-yl)-2-methyl-1,2,3,4-tetrahydroquinoxalin-1-yl]ethan-1-one] | – |
| 100 to 1000 | 50 to 500 | 100 to 500 | CC(=O)N1c2ccc(-c3cnn(C4CC4)c3)cc2N(c2nn(C)c3ncccc23)C[C@@H]1C [Example I-184, 1-[(2S)-6-(1-cyclopropyl-1H-pyrazol-4-yl)-2-methyl-4-{1-methyl-1H-pyrazolo[3,4-b]pyridin-3-yl}-1,2,3,4-tetrahydroquinoxalin-1-yl]ethan-1-one] | – |
| 100 to 1000 | < 50 | < 100 | CC(=O)N1c2ccc(-c3cnn(C4CC4)c3)cc2N(c2nn(C)c3cnccc23)C[C@@H]1C [Example I-185, 1-[(2S)-6-(1-cyclopropyl-1H-pyrazol-4-yl)-2-methyl-4-{1-methyl-1H-pyrazolo[3,4-c]pyridin-3-yl}-1,2,3,4-tetrahydroquinoxalin-1-yl]ethan-1-one] | – |
| 100 to 1000 | 50 to 500 | 100 to 500 | CC(=O)N1c2ccc(-c3cnn(C4CC4)c3)cc2N(c2nn(C)c3ccncc23)C[C@@H]1C [Example I-186, 1-[(2S)-6-(1-cyclopropyl-1H-pyrazol-4-yl)-2-methyl-4-{1-methyl-1H-pyrazolo[4,3-c]pyridin-3-yl}-1,2,3,4-tetrahydroquinoxalin-1-yl]ethan-1-one] | – |
| 1000 to 10000 | 50 to 500 | > 500 | CC(=O)N1c2ccc(-c3cnn(C4CC4)c3)cc2N(c2nn(C)c3cccnc23)C[C@@H]1C [Example I-187, 1-[(2S)-6-(1-cyclopropyl-1H-pyrazol-4-yl)-2-methyl-4-{1-methyl-1H-pyrazolo[4,3-b]pyridin-3-yl}-1,2,3,4-tetrahydroquinoxalin-1-yl]ethan-1-one] | – |
| 100 to 1000 | < 50 | 100 to 500 | CC(=O)N1c2ccc(-c3cnn(CCO)c3)cc2N(c2nn(C)c3cc(F)ccc23)C[C@@H]1C [Example I-188, 1-[(2S)-4-(6-fluoro-1-methyl-1H-indazol-3-yl)-6-[1-(2-hydroxyethyl)-1H-pyrazol-4-yl]-2-methyl-1,2,3,4-tetrahydroquinoxalin-1-yl]ethan-1-one] | – |
| 1000 to 10000 | 50 to 500 | 100 to 500 | CC(=O)N1c2ccc(-c3cnn(CCO)c3)cc2N(c2nn(C)c3ccc(F)cc23)C[C@@H]1C [Example I-189, 1-[(2S)-4-(5-fluoro-1-methyl-1H-indazol-3-yl)-6-[1-(2-hydroxyethyl)-1H-pyrazol-4-yl]-2-methyl-1,2,3,4-tetrahydroquinoxalin-1-yl]ethan-1-one] | – |
| 100 to 1000 | < 50 | 100 to 500 | CC(=O)N1c2ccc(-c3cnn(CCO)c3)cc2N(c2nn(C)c3cccc(F)c23)C[C@@H]1C [Example I-190, 1-[(2S)-4-(4-fluoro-1-methyl-1H-indazol-3-yl)-6-[1-(2-hydroxyethyl)-1H-pyrazol-4-yl]-2-methyl-1,2,3,4-tetrahydroquinoxalin-1-yl]ethan-1-one] | – |

| Structure (SMILES) | IC50 (BRD4 BD1) [nM] | IC50 (BRD4 BD2) [nM] | IC50 (MV4-11 cells; MV4-11, 72 h) [nM] | IC50 (MV4-11 cells) [nM] |
| --- | --- | --- | --- | --- |
| CC(=O)N1c2ccc(-c3cnn(C4CCNCC4)c3)cc2N(C(=O)Oc2ccc(F)cc2F)C[C@@H]1C [Example I-191, 2,4-difluorophenyl (S)-4-acetyl-3-methyl-7-(1-(piperidin-4-yl)-1H-pyrazol-4-yl)-3,4-dihydroquinoxaline-1(2H)-carboxylate] | 100 to 1000 | < 50 | – | 100 to 500 |
